In article PMC8586708, “SC75741, A Novel c-Abl Inhibitor, Promotes the Clearance of TDP25 Aggregates via ATG5-Dependent Autophagy Pathway” (Frontiers in Pharmacology, 2021) one finds IC50 data, which are given here for one molecule.

One may read the IC50 as the concentration needed to halve the response being measured.

This test addresses T1, c-Abl (Homo sapiens, UniProt P00519).
T1 construct: gene ABL1
As to the kind of experiment: in vitro kinase assay, dose-response. In kind it is biochemical.

T1 sequence (P00519 whole entry): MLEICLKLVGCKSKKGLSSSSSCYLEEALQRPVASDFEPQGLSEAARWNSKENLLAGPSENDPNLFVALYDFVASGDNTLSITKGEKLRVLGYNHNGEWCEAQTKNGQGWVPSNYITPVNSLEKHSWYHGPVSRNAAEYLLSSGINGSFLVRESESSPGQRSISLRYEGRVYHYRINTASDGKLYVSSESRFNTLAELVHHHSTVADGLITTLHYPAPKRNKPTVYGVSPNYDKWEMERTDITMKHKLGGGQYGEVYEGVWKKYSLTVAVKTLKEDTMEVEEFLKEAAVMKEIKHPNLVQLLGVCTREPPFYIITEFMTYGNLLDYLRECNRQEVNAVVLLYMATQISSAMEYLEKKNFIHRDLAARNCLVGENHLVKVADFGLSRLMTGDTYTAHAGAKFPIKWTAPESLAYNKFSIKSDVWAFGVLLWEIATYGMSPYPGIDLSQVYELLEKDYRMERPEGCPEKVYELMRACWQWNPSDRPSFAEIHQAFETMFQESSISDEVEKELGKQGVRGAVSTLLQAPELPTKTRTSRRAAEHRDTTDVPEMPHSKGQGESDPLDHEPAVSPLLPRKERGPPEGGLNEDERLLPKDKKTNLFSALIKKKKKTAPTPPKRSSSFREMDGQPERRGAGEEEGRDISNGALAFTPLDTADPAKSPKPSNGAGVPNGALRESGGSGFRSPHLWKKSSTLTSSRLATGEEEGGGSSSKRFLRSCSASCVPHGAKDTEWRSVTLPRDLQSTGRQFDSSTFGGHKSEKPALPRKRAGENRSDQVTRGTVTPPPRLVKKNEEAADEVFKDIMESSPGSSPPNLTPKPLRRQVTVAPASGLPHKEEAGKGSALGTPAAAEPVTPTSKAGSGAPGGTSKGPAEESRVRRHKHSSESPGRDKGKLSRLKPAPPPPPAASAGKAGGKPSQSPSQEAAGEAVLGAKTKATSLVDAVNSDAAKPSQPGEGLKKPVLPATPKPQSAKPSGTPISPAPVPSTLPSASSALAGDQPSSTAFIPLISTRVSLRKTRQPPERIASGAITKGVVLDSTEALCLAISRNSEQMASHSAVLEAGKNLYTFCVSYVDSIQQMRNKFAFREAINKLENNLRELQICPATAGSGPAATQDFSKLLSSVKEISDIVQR

Consider `O=C(c1ccccc1)c1ccc2nc(NC(=O)c3csc(C4CCN(c5ncnc6ccsc56)CC4)n3)[nH]c2c1` [SC75741], for which half-maximal inhibition (IC50) was put at 263 nM.
